Experimental data taken from US6100267A, “Quinoline- and naphthalenecarboxamides, pharmaceutical compositions and methods of inhibiting calpain” (SmithKline Beecham Corporation, priority 1999, dated 2000).
Counter-ions that a name gives are not always drawn.

Tested on: calpain
Test: inhibition of calpain in vitro, synthetic fluorogenic substrates (Sasaki et al.)
Format: biochemical
Conditions: percent decrease in rate of substrate hydrolysis
Experimental: The assays were performed using synthetic fluorogenic substrates. Inhibition of enzyme activity was calculated on the percent decease in the rate of substrate hydrolysis in the presence of inhibitor relative to the rate in its absence. IC50 s(nM) were calculated.

Going from `O=C[C@H](Cc1ccccc1)NC(=O)c1cc(C#Cc2ccccc2)nc2ccccc12` [Example 12, (S)-N-(1-formyl-2-phenylethyl)-2-(phenylethynyl)-4-quinolinecarboxamide] to `O=C[C@H](Cc1ccccc1)NC(=O)c1cc(-c2ccccc2)nc2ccccc12` [Example 1, (S)-N-(1-formyl-2-phenylethyl)-2-phenyl-4-quinolinecarboxamide], the IC50 rises from 12 nM to 65 nM (5.4-fold).

First: O=C[C@H](Cc1ccccc1)NC(=O)c1cc(-c2ccc(-c3cccnc3)cc2)nc2ccccc12 [Example 9, (S)-N-(1-Formyl-2-phenylethyl)-2-[4-(3-pyridinyl)phenyl]-4-quinolinecarboxamide]
Second: O=C[C@H](Cc1ccccc1)NC(=O)c1cc(-c2ccc(-c3ccccc3)cc2)nc2ccccc12 [Example 3, (S)-2-[1.1'-Biphenyl]-4-yl-N-(1-formyl-2-phenylethyl)-4-quinolinecarboxamide]
The IC50 of the first is 2.3-fold higher: 46 nM for the first, 20 nM for the second.

First: O=C[C@H](Cc1ccccc1)NC(=O)c1cc(-c2ccc(Cl)cc2)nc2ccccc12 [Example 2, (S)-2-(4-Chlorophenyl)-N-(1-formyl-2-phenylethyl)-4-quinolinecarboxamide]
Second: O=C[C@H](Cc1ccccc1)NC(=O)c1cc(-c2ccc(Oc3ccccc3)cc2)nc2ccccc12 [Example 5, (S)-N-(1-Formyl-2-phenylethyl)-2-(4-phenoxyphenyl)-4-quinolinecarboxamide]
The IC50 of the first is 2.1-fold higher: 66 nM for the first, 32 nM for the second. The second is the more potent here.

Compared with `O=C[C@H](Cc1ccccc1)NC(=O)c1cc(-c2ccccc2-c2ccccc2)nc2ccccc12` [Example 6, (S)-2-[1,1'-Biphenyl]-2-yl-N-(1-formyl-2-phenylethyl)-4-quinolinecarboxamide], `O=C[C@H](Cc1ccccc1)NC(=O)c1cc(N2CCN(c3ccccc3)CC2)nc2ccccc12` [Example 8, (S)-N-(1-Formyl-2-phenylethyl)-2-(4-phenyl-1-piperazinyl)-4-quinolinecarboxamide] is 2-fold higher in IC50: 19 nM for the first, 38 nM for the second. The first is the more potent here.

Compared with `O=C[C@H](Cc1ccccc1)NC(=O)c1cc(C23CC4CC(CC(C4)C2)C3)nc2ccccc12` [Example 4, (S)-2-(1-Adamantyl)-N-(1-formyl-2-phenylethyl)-4-quinolinecarboxamide], `O=C[C@H](CCCCNS(=O)(=O)c1ccccc1)NC(=O)c1cc(-c2ccccc2)nc2ccccc12` [Example 10, (S)-N-[1-Formyl-5-[(phenylsulfonyl)amino]pentyl]-2-phenyl-4-quinolinecarboxamide] is 2.9-fold lower in IC50: 123 nM for the first, 42 nM for the second. The second is the more potent here.

First: CCCCNC(=O)C(=O)[C@H](Cc1ccccc1)NC(=O)c1cc(C#Cc2ccccc2)nc2ccccc12 [Example 13, N-[3-(n-butylamino)-2,3-dioxo-1-(phenylmethyl)]-2-(phenylethynyl)-4-quinolinecarboxamide]
Second: O=C[C@H](CCCCNC(=O)OCc1ccncc1)NC(=O)c1cc(-c2ccccc2)nc2ccccc12 [Example 11, (S)-N-(1-Formyl-5-[(4-pyridylmethoxy)carbonylamino]pentyl]-2-phenyl-4-quinolinecarboxamide dihydrochloride salt]
The IC50 of the first is 2.1-fold lower: 77 nM for the first, 160 nM for the second. The first is the more potent here.
